Source: ChEMBL document CHEMBL3758102, “Serrulatane Diterpenoid from Eremophila neglecta Exhibits Bacterial Biofilm Dispersion and Inhibits Release of Pro-inflammatory Cytokines from Activated Macrophages” (J Nat Prod, 2015)
The source made the active and inactive calls. No cut-off for these calls is given here.

Key:
[1] = tested on: Staphylococcus epidermidis; assay: Antibiofilm activity against Staphylococcus epidermidis ATCC 35984 assessed as reduction in 12 hrs pre-established biofilm viable cell count after 20 hrs (reference value: 1.2 x 10^10 CFU/ml); type: functional
[2] = tested on: Staphylococcus epidermidis; assay: Antibiofilm activity against Staphylococcus epidermidis ATCC 35984 assessed as 12 hrs pre-established biofilm viable cell count after 20 hrs (reference value: 1.2 x 10^10 CFU/ml); type: functional
[3] = tested on: Staphylococcus epidermidis; assay: Antibiofilm activity against Staphylococcus epidermidis ATCC 35984 assessed as 6 hrs pre-established biofilm viable cell count after 20 hrs (reference value: 8.3 x 10^9 CFU/ml); type: functional
[4] = tested on: Staphylococcus epidermidis; assay: Antibiofilm activity against Staphylococcus epidermidis ATCC 35984 assessed as 3 hrs pre-established biofilm viable cell count after 20 hrs (reference value: 1 x 10^10 CFU/ml); type: functional
[5] = tested on: Staphylococcus epidermidis; assay: Antibiofilm activity against Staphylococcus epidermidis ATCC 35984 assessed as inhibition of 12 hrs pre-established biofilm formation at 0.064 umol/well after 20 hrs by visible spectrometric analysis; type: functional, organism-based
[6] = tested on: Staphylococcus epidermidis; assay: Antibiofilm activity against Staphylococcus epidermidis ATCC 35984 assessed as 24 hrs pre-established biofilm viable cell count after 20 hrs (reference value: 1.4 x 10^10 +/- 2.6 x 10^9 CFU/ml); type: functional
[7] = tested on: Staphylococcus epidermidis; assay: Antibiofilm activity against Staphylococcus epidermidis ATCC 35984 assessed as inhibition of 3 to 6 hrs pre-established biofilm formation at 0.064 umol/well after 20 hrs by safranin staining-based method; type: functional, organism-based
[8] = tested on: Staphylococcus epidermidis; assay: Antibiofilm activity against Staphylococcus epidermidis ATCC 35984 assessed as inhibition of 24 hrs pre-established biofilm formation at 0.064 umol/well after 20 hrs by safranin staining-based method; type: functional, organism-based
[9] = tested on: Staphylococcus epidermidis; assay: Antibiofilm activity against Staphylococcus epidermidis ATCC 35984 assessed as killing of biofilm in 12 hrs pre-established biofilm at 0.064 umol/well after 20 hrs by fluorescence staining-based confocal microscopic analysis; type: functional, organism-based
[10] = tested on: Staphylococcus epidermidis; assay: Antibiofilm activity against Staphylococcus epidermidis ATCC 35984 assessed as inhibition of 12 hrs pre-established biofilm formation at 0.064 umol/well after 20 hrs by safranin staining-based method; type: functional, organism-based
[11] = tested on: Staphylococcus epidermidis; assay: Antibiofilm activity against Staphylococcus epidermidis ATCC 35984 assessed as inhibition of 24 hrs pre-established biofilm formation at 0.064 umol/well after 20 hrs by visible spectrometric analysis; type: functional, organism-based
BMDM [12] = assay: Inhibition of TNFalpha production in C57Bl/6 mouse BMDM cells at 1.6 to 6.4 uM pretreated prior to LPS-stimulation measured on day 7 by ELISA; type: functional, cell-based; details: C57BI/6
BMDM [13] = assay: Inhibition of IL-6 production in C57Bl/6 mouse BMDM cells at 1.6 to 6.4 uM pretreated prior to LPS-stimulation measured on day 7 by ELISA; type: functional, cell-based; details: C57BI/6
BMDM [14] = assay: Inhibition of IL-1beta production in C57Bl/6 mouse BMDM cells at 1.6 to 6.4 uM pretreated for 1 hr prior to ATP-stimulation by ELISA; type: functional, cell-based; details: C57BI/6
[15] = tested on: Staphylococcus epidermidis; assay: Antibacterial activity against Staphylococcus epidermidis ATCC 35984 incubated overnight by broth microdilution method; type: functional

Question: With N=C(NCCCCCCNC(=N)NC(=N)Nc1ccc(Cl)cc1)NC(=N)Nc1ccc(Cl)cc1 [CHLORHEXIDINE] as the compound, how does the Activity [1] read?
Answer: 7 log10CFU/ml

Question: And the Activity [2]?
Answer: 4 ×10³ CFU/ml

Question: What about the Activity [3] of the same compound?
Answer: 0 CFU/ml

Question: What about the Activity [4] of the same compound?
Answer: 0 CFU/ml

Question: What about the inhibition [5] of the same compound?
Answer: Active

Question: And the Activity [6]?
Answer: 1.3 ×10⁶ CFU/ml

Question: What about the Activity [7] of the same compound?
Answer: inactive

Question: What about the Activity [8] of the same compound?
Answer: Active

Question: And the Activity [9]?
Answer: Active

Question: What about the Activity [10] of the same compound?
Answer: Active

Question: And the inhibition [11]?
Answer: Active

Question: With C[C@]12CCC(=O)C=C1CC[C@@H]1[C@@H]2[C@@H](O)C[C@@]2(C)[C@H]1CC[C@]2(O)C(=O)COC(=O)CCC(=O)O as the compound, how does the inhibition (BMDM [12]) read?
Answer: Active

Question: What about the inhibition (BMDM [13]) of the same compound?
Answer: Active

Question: What about the inhibition (BMDM [14]) of the same compound?
Answer: inactive

Question: With C[C@H]1COc2c(N3CCN(C)CC3)c(F)cc3c(=O)c(C(=O)O)cn1c23.C[C@H]1COc2c(N3CCN(C)CC3)c(F)cc3c(=O)c(C(=O)O)cn1c23.O [LEVOFLOXACIN] as the compound, how does the Activity [1] read?
Answer: 7 log10CFU/ml

Question: What about the Activity [2] of the same compound?
Answer: 8 ×10³ CFU/ml

Question: What about the Activity [3] of the same compound?
Answer: 0 CFU/ml

Question: What about the Activity [4] of the same compound?
Answer: 0 CFU/ml

Question: What about the inhibition [5] of the same compound?
Answer: Active

Question: What about the Activity [6] of the same compound?
Answer: 2.2 ×10⁶ CFU/ml

Question: And the MIC [15]?
Answer: 0.66 µM

Question: What about the Activity [7] of the same compound?
Answer: Active

Question: And the Activity [8]?
Answer: inactive

Question: What about the Activity [9] of the same compound?
Answer: Active

Question: What about the Activity [10] of the same compound?
Answer: inactive

Question: And the inhibition [11]?
Answer: Active
